Assay results taken from patent publication US20250161501A1, “Radiolabeled Compounds for Imaging of Fibroblast Activation Protein (FAP) and Treatment of FAP-Related Disorders” (Provincial Health Services Authority, priority 2022, published 2025).
Blank lines part the entries; values can stand above or below the compound they belong to.

Assays:
U87 xenografts = test: Ex vivo biodistribution of 68Ga-labeled tracer in U87 tumor-bearing mice; conditions: U87 tumor model, mean±SD
Procedure: (§1) All imaging and biodistribution studies were performed using male NOD-scidIL2Rg^null (NRG) mice and conducted according to the guidelines established by the Canadian Council on Animal Care and approved by Animal Ethics Committee of the University of British Columbia. For tumor inoculations, mice were anesthetized by inhalation with 2% isoflurane in oxygen and implanted subcutaneously with 7.5×10^6 HEK293T:hFAP or U87 cells below the left shoulder. Imaging and biodistribution studies were performed only after tumors grew to 5-8 mm in diameter.
For ex vivo biodistribution studies, mice were injected with -1-3 MBq of the ^68Ga-labeled tracer. Mice were allowed to recover and roam freely in the cages after injecting the tracer. […] The uptake in each organ/tissue was normalized to the injected dose and expressed as the percentage of the injected dose per gram of tissue (% ID/g). […]

[1] = test system: HEK293T:hFAP tumor xenografts; test: Ex vivo biodistribution of 68Ga-labeled tracers in HEK293T:hFAP tumor-bearing mice; conditions: for Uptake in HEK293T:hFAP tumor xenografts, comparison in words: 68Ga-SB03178 vs 68Ga-FAPI-4, 68Ga-SB04033 vs 68Ga-SB03178
Procedure: as §1
For ex vivo biodistribution studies, mice were injected with -1-3 MBq of the ^68Ga-labeled tracer. Mice were allowed to recover and roam freely in the cages after injecting the tracer. […] The uptake in each organ/tissue was normalized to the injected dose and expressed as the percentage of the injected dose per gram of tissue (% ID/g).
Biodistribution data for ^68Ga-SB03178, ^68Ga-SB04033, and ^68Ga-FAPI-4 in mice bearing FAP tumor xenografts are presented in Tables 5-7. Data are presented as mean±SD % ID/g.

[2] = HEK293T:hFAP tumor model, 1 h post-injection (n = 4), mean±SD
[3] = HEK293T:hFAP tumor model, 3 h post-injection (n = 2), mean±SD
[4] = HEK293T:hFAP tumor xenograft mice, 1 h post-injection, Table 5, mean±SD

Biodistribution: Adrenal Glands (U87 xenografts; 1 h post-injection (n = 3)): 1.41 ± 0.38 % ID/g | Biodistribution: Blood (U87 xenografts; 1 h post-injection (n = 3)): 3.55 ± 0.22 % ID/g | Biodistribution: Bone (U87 xenografts; 1 h post-injection (n = 3)): 2.51 ± 0.66 % ID/g | Biodistribution: Brain (U87 xenografts; 1 h post-injection (n = 3)): 0.07 ± 0.01 % ID/g | Biodistribution: Fat (U87 xenografts; 1 h post-injection (n = 3)): 0.28 ± 0.18 % ID/g | Biodistribution: Heart (U87 xenografts; 1 h post-injection (n = 3)): 0.80 ± 0.06 % ID/g | Biodistribution: Kidneys (U87 xenografts; 1 h post-injection (n = 3)): 8.92 ± 1.32 % ID/g | Biodistribution: Large Intestines (U87 xenografts; 1 h post-injection (n = 3)): 0.44 ± 0.09 % ID/g | Biodistribution: Liver (U87 xenografts; 1 h post-injection (n = 3)): 1.12 ± 0.08 % ID/g | Biodistribution: Lungs (U87 xenografts; 1 h post-injection (n = 3)): 1.66 ± 0.10 % ID/g | Biodistribution: Muscle (U87 xenografts; 1 h post-injection (n = 3)): 0.57 ± 0.21 % ID/g | Biodistribution: Pancreas (U87 xenografts; 1 h post-injection (n = 3)): 0.65 ± 0.11 % ID/g | Biodistribution: Small Intestine (U87 xenografts; 1 h post-injection (n = 3)): 1.07 ± 0.03 % ID/g | Biodistribution: Spleen (U87 xenografts; 1 h post-injection (n = 3)): 0.48 ± 0.08 % ID/g | Biodistribution: Stomach (U87 xenografts; 1 h post-injection (n = 3)): 0.28 ± 0.12 % ID/g | Biodistribution: Testes (U87 xenografts; 1 h post-injection (n = 3)): 0.65 ± 0.09 % ID/g | Biodistribution: Tumor (U87 xenografts; 1 h post-injection (n = 3)): 16.3 ± 1.72 % ID/g | Biodistribution: Adrenal Glands (U87 xenografts; 3 h post-injection (n = 3)): 0.49 ± 0.30 % ID/g | Biodistribution: Blood (U87 xenografts; 3 h post-injection (n = 3)): 0.98 ± 0.09 % ID/g | Biodistribution: Bone (U87 xenografts; 3 h post-injection (n = 3)): 1.11 ± 0.27 % ID/g | Biodistribution: Brain (U87 xenografts; 3 h post-injection (n = 3)): 0.03 ± 0.00 % ID/g | Biodistribution: Fat (U87 xenografts; 3 h post-injection (n = 3)): 0.09 ± 0.04 % ID/g | Biodistribution: Heart (U87 xenografts; 3 h post-injection (n = 3)): 0.28 ± 0.01 % ID/g | Biodistribution: Kidneys (U87 xenografts; 3 h post-injection (n = 3)): 9.63 ± 1.23 % ID/g | Biodistribution: Large Intestines (U87 xenografts; 3 h post-injection (n = 3)): 1.15 ± 0.37 % ID/g | Biodistribution: Liver (U87 xenografts; 3 h post-injection (n = 3)): 0.71 ± 0.05 % ID/g | Biodistribution: Lungs (U87 xenografts; 3 h post-injection (n = 3)): 0.72 ± 0.11 % ID/g | Biodistribution: Muscle (U87 xenografts; 3 h post-injection (n = 3)): 0.34 ± 0.07 % ID/g | Biodistribution: Pancreas (U87 xenografts; 3 h post-injection (n = 3)): 0.27 ± 0.06 % ID/g | Biodistribution: Small Intestine (U87 xenografts; 3 h post-injection (n = 3)): 0.56 ± 0.16 % ID/g | Biodistribution: Spleen (U87 xenografts; 3 h post-injection (n = 3)): 0.34 ± 0.04 % ID/g | Biodistribution: Stomach (U87 xenografts; 3 h post-injection (n = 3)): 0.24 ± 0.02 % ID/g | Biodistribution: Testes (U87 xenografts; 3 h post-injection (n = 3)): 0.25 ± 0.03 % ID/g | Biodistribution: Tumor (U87 xenografts; 3 h post-injection (n = 3)): 7.95 ± 0.29 % ID/g | Uptake in HEK293T:hFAP tumor xenografts, comparison in words [1]: higher uptake | Biodistribution: Adrenal Glands [1, 2]: 3.01 ± 2.86 % ID/g | Biodistribution: Blood [1, 2]: 2.59 ± 0.32 % ID/g | Biodistribution: Bone [1, 2]: 1.89 ± 0.31 % ID/g | Biodistribution: Brain [1, 2]: 0.06 ± 0.01 % ID/g | Biodistribution: Fat [1, 2]: 0.22 ± 0.03 % ID/g | Biodistribution: Heart [1, 2]: 0.71 ± 0.09 % ID/g | Biodistribution: Kidneys [1, 2]: 9.58 ± 1.21 % ID/g | Biodistribution: Large Intestines [1, 2]: 0.52 ± 0.21 % ID/g | Biodistribution: Liver [1, 2]: 1.11 ± 0.15 % ID/g | Biodistribution: Lungs [1, 2]: 1.66 ± 0.23 % ID/g | Biodistribution: Muscle [1, 2]: 0.56 ± 0.08 % ID/g | Biodistribution: Pancreas [1, 2]: 0.57 ± 0.05 % ID/g | Biodistribution: Small Intestine [1, 2]: 1.04 ± 0.14 % ID/g | Biodistribution: Spleen [1, 2]: 0.87 ± 0.30 % ID/g | Biodistribution: Stomach [1, 2]: 0.27 ± 0.19 % ID/g | Biodistribution: Testes [1, 2]: 0.44 ± 0.08 % ID/g | Biodistribution: Tumor [1, 2]: 21.0 ± 3.84 % ID/g | Biodistribution: Adrenal Glands [1, 3]: 0.31 ± 0.06 % ID/g | Biodistribution: Blood [1, 3]: 1.35 ± 1.18 % ID/g | Biodistribution: Bone [1, 3]: 0.38 ± 0.07 % ID/g | Biodistribution: Brain [1, 3]: 0.02 ± 0.00 % ID/g | Biodistribution: Fat [1, 3]: 0.11 ± 0.10 % ID/g | Biodistribution: Heart [1, 3]: 0.15 ± 0.06 % ID/g | Biodistribution: Kidneys [1, 3]: 3.89 ± 1.35 % ID/g | Biodistribution: Large Intestines [1, 3]: 0.53 ± 0.13 % ID/g | Biodistribution: Liver [1, 3]: 0.33 ± 0.13 % ID/g | Biodistribution: Lungs [1, 3]: 0.39 ± 0.08 % ID/g | Biodistribution: Muscle [1, 3]: 0.13 ± 0.08 % ID/g | Biodistribution: Pancreas [1, 3]: 0.17 ± 0.05 % ID/g | Biodistribution: Small Intestine [1, 3]: 0.34 ± 0.21 % ID/g | Biodistribution: Spleen [1, 3]: 0.24 ± 0.07 % ID/g | Biodistribution: Stomach [1, 3]: 0.06 ± 0.02 % ID/g | Biodistribution: Testes [1, 3]: 0.12 ± 0.03 % ID/g | Biodistribution: Tumor [1, 3]: 6.58 ± 1.98 % ID/g | Biodistribution: Adrenal Glands [1, 4]: 3.48 ± 3.31 % ID/g | Biodistribution: Blood [1, 4]: 3.00 ± 0.38 % ID/g | Biodistribution: Bone [1, 4]: 2.18 ± 0.35 % ID/g | Biodistribution: Brain [1, 4]: 0.07 ± 0.01 % ID/g | Biodistribution: Fat [1, 4]: 0.25 ± 0.04 % ID/g | Biodistribution: Heart [1, 4]: 0.82 ± 0.10 % ID/g | Biodistribution: Kidneys [1, 4]: 11.1 ± 1.40 % ID/g | Biodistribution: Liver [1, 4]: 1.29 ± 0.17 % ID/g | Biodistribution: Lungs [1, 4]: 1.92 ± 0.26 % ID/g | Biodistribution: Muscle [1, 4]: 0.65 ± 0.09 % ID/g | Biodistribution: Pancreas [1, 4]: 0.66 ± 0.06 % ID/g | Biodistribution: Spleen [1, 4]: 1.00 ± 0.35 % ID/g | Biodistribution: Stomach [1, 4]: 0.32 ± 0.22 % ID/g | Biodistribution: Testes [1, 4]: 0.51 ± 0.09 % ID/g | Biodistribution: Tumor [1, 4]: 24.3±4.44 % ID/g
Structure (SMILES): N#C[C@@H]1CC(F)(F)CN1C(=O)CNC(=O)c1ccnc2c1cc(OCCCN1CCN(C(=O)CN3CCN(CC(=O)O)CCN(CC(=O)O)CCN(CC(=O)O)CC3)CC1)c1ccccc12 [^68Ga-SB03178, metal not drawn]

Uptake in HEK293T:hFAP tumor xenografts, comparison in words [1]: weaker uptake | Biodistribution: Adrenal Glands [1, 2]: 0.65 ± 0.46 % ID/g | Biodistribution: Blood [1, 2]: 3.62 ± 0.47 % ID/g | Biodistribution: Bone [1, 2]: 1.52 ± 0.22 % ID/g | Biodistribution: Brain [1, 2]: 0.08 ± 0.01 % ID/g | Biodistribution: Fat [1, 2]: 0.30 ± 0.15 % ID/g | Biodistribution: Heart [1, 2]: 0.95 ± 0.12 % ID/g | Biodistribution: Kidneys [1, 2]: 10.3 ± 0.55 % ID/g | Biodistribution: Large Intestines [1, 2]: 0.33 ± 0.03 % ID/g | Biodistribution: Liver [1, 2]: 1.06 ± 0.11 % ID/g | Biodistribution: Lungs [1, 2]: 2.13 ± 0.33 % ID/g | Biodistribution: Muscle [1, 2]: 0.54 ± 0.11 % ID/g | Biodistribution: Pancreas [1, 2]: 0.62 ± 0.05 % ID/g | Biodistribution: Small Intestine [1, 2]: 1.53 ± 0.20 % ID/g | Biodistribution: Spleen [1, 2]: 0.98 ± 0.27 % ID/g | Biodistribution: Stomach [1, 2]: 0.30 ± 0.10 % ID/g | Biodistribution: Testes [1, 2]: 0.59 ± 0.07 % ID/g | Biodistribution: Tumor [1, 2]: 5.95 ± 0.16 % ID/g
Structure (SMILES): C[C@@H](NC(=O)c1ccnc2c1cc(OCCCN1CCN(C(=O)CN3CCN(CC(=O)O)CCN(CC(=O)O)CCN(CC(=O)O)CC3)CC1)c1ccccc12)C(=O)N1CCC[C@H]1B(O)O [^68Ga-SB04033, metal not drawn]
